Test results: US8791132B2, “Compounds and methods for treatment of hypertension” (Medivation Technologies, Inc., priority 2011, dated 2014)
Like-named read-outs stand apart in the source and are kept apart here.

Experiments:
[1] = molecular target: T1, human recombinant adrenergic α1D receptor (Homo sapiens, UniProt P25100); experiment: Radioligand binding, adrenergic α1D ([3H]Prazosin); conditions: [3H]Prazosin
T1 construct: expressed in transfected cells; host or cells: HEK-293
T1 sequence (P25100 1-572): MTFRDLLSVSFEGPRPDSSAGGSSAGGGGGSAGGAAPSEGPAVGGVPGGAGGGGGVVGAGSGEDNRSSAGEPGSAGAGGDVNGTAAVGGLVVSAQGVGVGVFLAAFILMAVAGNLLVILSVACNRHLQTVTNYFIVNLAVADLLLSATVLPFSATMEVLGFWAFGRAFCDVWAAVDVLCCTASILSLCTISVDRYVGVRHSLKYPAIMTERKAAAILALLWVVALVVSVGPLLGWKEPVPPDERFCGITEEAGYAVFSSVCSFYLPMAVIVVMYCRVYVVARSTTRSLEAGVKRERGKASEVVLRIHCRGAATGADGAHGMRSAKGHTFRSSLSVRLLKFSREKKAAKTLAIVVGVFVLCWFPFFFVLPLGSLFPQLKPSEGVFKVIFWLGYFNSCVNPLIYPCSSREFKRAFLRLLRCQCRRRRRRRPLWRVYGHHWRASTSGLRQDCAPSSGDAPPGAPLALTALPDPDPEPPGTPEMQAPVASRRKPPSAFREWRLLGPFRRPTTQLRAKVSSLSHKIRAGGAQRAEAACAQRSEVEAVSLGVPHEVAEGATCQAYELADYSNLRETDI
Method: Compounds were incubated with 0.6 nM [3H]Prazosin for 60 min at 25° C. Non-specific binding was estimated in the presence of 10 μM phentolamine. Receptor proteins were filtered and washed, the filters were then counted to determine [3H]Prazosin specifically bound. […] Biochemical assay results are presented as the percent inhibition of specific binding in Table B1.

[2] = test system: spontaneously hypertensive rats (SHR); experiment: Blood pressure in spontaneously hypertensive rat (SHR) model of hypertension; format: in vivo; conditions: for systolic blood pressure lowering effects: escalating doses 1, 3, 10 and 30 mg/kg/iv for every 30 minutes (FIGS. 20-22)
Method: Male spontaneously hypertensive rats (SHR), approximately 3 months of age and weighting approximately 250 grams were utilized. Free access to standard lab chow for rats and reverse osmosis (RO) water was granted. All aspects of this work, including housing, experimentation and disposal of animals were performed in general accordance with the Guide for the Care and Use of Laboratory Animals (National Academy Press, Washington, D.C., 1996).
The animals were anaesthetized with sodium pentobarbital (50 mg/kg IP). The left carotid artery when compound dosed orally (PO) or subcutaneously (SC); and both left carotid and femoral artery when compound dosed intravenous (i.v.) were cannulated with a polyethylene catheter (38 cm in length; PE60, Portex, Ltd.) connected with a polyurethane tubing (12 cm in length; PU-40, Cat. #BB520-40, Scientific Commodities, Inc.), which was tunneled under the skin and exited through the nape of the neck. The arterial cannula was connected to a pressure transducer through a swivel system, allowing free roaming during continuous recording of mean arterial pressure and heart rate. The animals were housed individually with food and water freely available during recovery. On the following day, the arterial cannula was connected via a Statham (P 23×L) pressure transducer to a NEC/San-Ei amplifier and data acquisition and analysis system (Power Lab 8/SP) for direct mean arterial pressure and heart rate measurements.
The test compounds, dissolved in sterile saline, were administered subcutaneously (SC) or orally (PO), or by intravenous (i.v.) bolus administration in two minutes or the escalating doses of compound administration in every 30 minutes, with each dose and its strength delivered over 2 minutes as shown in the respective figures; the internal standard phentolamine was given by oral gavage. The control group received vehicle alone. Immediately before (−10 min and −5 min) and at 15 min, 30 min, 1 hr, 1.5 hr, 2 hr, 2.5 hr, 3 hr, 3.5 hr, and 4 hr post-dosing, systolic pressure blood pressure values were recorded.

[3] = read-out: Percentage inhibition of ligand binding, Adrenergic α1D (0.1 μM), compound at 0.1 μM, repeat datapoints each shown
[4] = SC or PO, 4 hour study period (FIGS. 7-10)
[5] = compound at 0.03 μM, repeat assays, each datapoint shown, read-out: Percentage inhibition of ligand binding, Adrenergic α1D
[6] = compound at 0.1 μM, repeat assays, each datapoint shown, read-out: Percentage inhibition of ligand binding, Adrenergic α1D
[7] = read-out: Percentage inhibition of ligand binding, Adrenergic α1D (0.03 μM), compound at 0.03 μM, repeat datapoints each shown
[8] = compound at 0.1 μM, repeat datapoints each shown, 0.1 µM

**Q.** How did the inhibition at 0.1 µM [1, 3] turn out when `Cc1ccc(C(O)Cn2c3c(c4cc(C)ccc42)CN(C)CC3)cc1` (racemic) [compound 183, racemic-2-(1,2,3,4-tetrahydro-2,8-dimethylpyrido[4,3-b]indol-5-yl)-1-p-tolylethanol] was run?
**A.** 36%

**Q.** `Cc1ccc2c(c1)c1c(n2CC(O)c2ccncc2)CCN(C)CC1` (single isomer, unassigned) [13b, 2-(3,9-dimethyl-2,3,4,5-tetrahydroazepino[4,5-b]indol-6(1H)-yl)-1-(pyridin-4-yl)ethanol] was tested. Which systolic blood pressure [2, 4] did it give?
**A.** lowered systolic blood pressure

**Q.** Which “systolic blood pressure lowering effects” value [2] does the source give for `Cc1cnc2c(c1)c1c(n2CC(C)(O)c2cccnc2)CCN2CCCC12` (single isomer, unassigned) [26a] here?
**A.** robust

**Q.** Which “systolic blood pressure lowering effects” value [2] does the source give for `Cc1ccc2c(c1)c1c(n2CC(N)c2ccncc2)CCN(C)C1` (single isomer, unassigned) [27a, 2-(1,2,3,4-tetrahydro-2,8-dimethylpyrido[4,3-b]indol-5-yl)-1-(pyridin-4-yl)ethanamine] here?
**A.** robust

**Q.** And the heart rate ([2]; when systolic blood pressure falls (data not shown))?
**A.** neutral effect on heart rate

**Q.** `CN1CCc2c(n(CC(O)c3ccncc3)c3ccc(Cl)cc23)C1` (single isomer, unassigned) [41a] was tested. Which systolic blood pressure [2, 4] did it give?
**A.** markedly lowered blood pressure

**Q.** Which results are given for `Cc1cnc2c(c1)c1c(n2CCc2ccc(C)nc2)CCN2CCCC12` (single isomer, unassigned) [74a, 10-methyl-7-(2-(6-methylpyridin-3-yl)ethyl)-2,3,5,6,7,11c-hexahydro-1H-pyrido[3′,2′:4,5]pyrrolo[2,3-g]indolizine]?
**A.** inhibition at 0.03 µM [1, 5]: 42%; inhibition at 0.1 µM [1, 6]: 61%

**Q.** What does the source list for `Cc1ccc2c(c1)c1c(n2CC(O)c2ccncc2)CCN2CCCC12` (single isomer, unassigned) [129d]?
**A.** heart rate ([2]; oral or iv bolus or i.v. escalating doses): tachycardia; effects on systolic blood pressure ([2]; oral or iv bolus or i.v. escalating doses (FIGS. 23-25)): robust

**Q.** For `Cc1ccc2c(c1)c1c(n2CC(O)c2ccc(C(N)=O)nc2)CCN(C)C1` (single isomer, unassigned) [144b, 5-[2-(2,8-dimethyl-1,2,3,4-tetrahydro-pyrido[4,3-b]indol-5-yl)-1-hydroxy-ethyl]-pyridine-2-carboxylic acid amide], which systolic blood pressure ([2]; i.v. bolus in 2 minutes (FIG. 19)) is on record?
**A.** marked reduction in systolic blood pressure

**Q.** Which “systolic blood pressure lowering effects” value [2] does the source give for `Cc1ccc2c(c1)c1c(n2CC(C)(O)c2cnccn2)CCN2CCCC12` (single isomer, unassigned) [176a] here?
**A.** robust

**Q.** Which inhibition at 0.1 µM [1, 3] does the source give for `Cc1cnc2c(c1)c1c(n2CCc2ccc(C)nc2)CCN(C)C1` [II-110, 3,6-dimethyl-9-(2-(6-methylpyridin-3-yl)ethyl)-6,7,8,9-tetrahydro-5H-pyrrolo[2,3-b:4,5-c′]dipyridine] here?
**A.** 17%

**Q.** For `Cc1ccc2c(c1)c1c(n2CC(C)(O)c2cccnc2)CCN(C)C1` (stereo not shown) [compound 5, 1-(1,2,3,4-tetrahydro-2,8-dimethylpyrido[4,3-b]indol-5-yl)-2-(pyridin-3-yl)propan-2-ol], which inhibition at 0.1 µM [1, 6] is on record?
**A.** 4%

**Q.** `Cc1ccc2c(c1)c1c(n2CCc2cccnc2)CCN(C)C1` [compound 61] was tested. Which inhibition at 0.03 µM [1, 5] did it give?
**A.** 14%

**Q.** And the inhibition at 0.1 µM [1, 6]?
**A.** 37%

**Q.** Which inhibition at 0.1 µM [1, 6] does the source give for `Cc1ccc2c(c1)c1c(n2CC2(c3ccccc3)OCCO2)CCN(C)C1` [compound 83] here?
**A.** 13%

**Q.** Which inhibition at 0.1 µM [1, 6] does the source give for `CCN1CCc2c(c3cc(C)ccc3n2CCc2ccncc2)C1` [compound 85] here?
**A.** 17%

**Q.** Which results are given for `Cc1ccc2c(c1)c1c(n2CCc2ccc(CO)nc2)CCN(C)C1` [compound 91]?
**A.** Percentage inhibition of ligand binding, Adrenergic α1D ([1]; compound at 0.03 μM, repeat assays, each datapoint shown, 0.03 µM): 11%; inhibition at 0.03 µM [1, 5]: 7%; Percentage inhibition of ligand binding, Adrenergic α1D ([1]; compound at 0.1 μM, repeat assays, each datapoint shown, 0.1 µM): 30%; inhibition at 0.1 µM [1, 6]: 25%; inhibition at 0.03 µM [1, 7]: 21%; inhibition at 0.1 µM [1, 3]: 32%

**Q.** With `Cc1ccc2c(c1)c1c(n2CC(C)(O)c2ccc(O)cc2)CCN(C)C1` (stereo not shown) [compound 98] as the compound, how does the “Percentage inhibition of ligand binding, Adrenergic α1D (0.1 μM)” value (“Percentage inhibition … (0.1 μM)” below) [1, 8] read?
**A.** 35%

**Q.** And the inhibition at 0.1 µM [1, 3]?
**A.** 31%

**Q.** For `C/C(=C\n1c2c(c3cc(C)ccc31)CN(C)CC2)c1ccncn1` [compound 101], which “Percentage inhibition … (0.1 μM)” value [1, 8] is on record?
**A.** 48%

**Q.** What about the inhibition at 0.1 µM [1, 3] of the same compound?
**A.** 45%

**Q.** Which inhibition at 0.1 µM [1, 3] does the source give for `Cc1ccc2c(c1)c1c(n2C2=C(c3ccncc3)CCC2)CCN(C)C1` [compound 114] here?
**A.** 15%

**Q.** With `Cc1ccc2c(c1)c1c(n2CNc2ccccn2)CCN(C)C1` [compound 120, (2,8-dimethyl-1,2,3,4-tetrahydro-pyrido[4,3-b]indol-5-ylmethyl)-pyridin-2-yl-amine] as the compound, how does the “Percentage inhibition … (0.1 μM)” value [1, 8] read?
**A.** 26%

**Q.** What about the inhibition at 0.03 µM [1, 7] of the same compound?
**A.** 3%

**Q.** What about the inhibition at 0.1 µM [1, 3] of the same compound?
**A.** 14%

**Q.** How did the inhibition at 0.1 µM [1, 3] turn out when `Cc1ccc(CCn2c3c(c4cc(C)ccc42)CN(C)CC3)cc1` [compound 180, 2,3,4,5-tetrahydro-2,8-dimethyl-5-(4-methylphenethyl)-1H-pyrido[4,3-b]indole] was run?
**A.** 74%

**Q.** With `Cc1ccc(CCn2c3c(c4ccccc42)CN(C)CC3)cc1` [compound 181, 2,3,4,5-Tetrahydro-2-methyl-5-(4-methylphenethyl)-1H-pyrido[4,3-b]indole] as the compound, how does the inhibition at 0.1 µM [1, 3] read?
**A.** 32%

**Q.** With `CN1CCc2c(c3ccccc3n2CCc2ccccc2)C1` [compound 182, 2,3,4,5-Tetrahydro-2-methyl-5-phenethyl-1H-pyrido[4,3-b]indole] as the compound, how does the inhibition at 0.1 µM [1, 3] read?
**A.** 16%

**Q.** How did the inhibition at 0.03 µM [1, 7] turn out when `C/C(=C\n1c2c(c3cc(Cl)ccc31)CN(C)CC2)c1ccncc1` [compound 185, 8-chloro-2,3,4,5-tetrahydro-2-methyl-5-((E)-2-(pyridin-4-yl)prop-1-enyl)-1H-pyrido[4,3-b]indole] was run?
**A.** 47%

**Q.** What about the inhibition at 0.1 µM [1, 3] of the same compound?
**A.** 58%

**Q.** Which results are given for `C/C(=C\n1c2c(c3cc(C)ccc31)CN(C)CC2)c1ccc(C)nc1` [compound 186]?
**A.** Percentage inhibition of ligand binding, Adrenergic α1D (0.1 μM) [1, 8]: 55%; inhibition at 0.03 µM [1, 7]: 31%; inhibition at 0.1 µM [1, 3]: 51%

**Q.** `C/C(=C\n1c2c(c3cc(C)ccc31)CN(C)CC2)c1cnc(N(C)C)nc1` [compound 187] was tested. Which inhibition at 0.1 µM [1, 3] did it give?
**A.** 83%

**Q.** Which inhibition at 0.1 µM [1, 3] does the source give for `C/C(=C\n1c2c(c3cc(C)ccc31)CN(C)CC2)c1sccc1C` [compound 189] here?
**A.** 16%

**Q.** `Cc1ccc2c(c1)c1c(n2C2=C(c3ccc(C)s3)CCC2)CCN(C)C1` [compound 190, 2,8-dimethyl-5-(2-(5-methylthiophen-2-yl)cyclopent-1-enyl)-2,3,4,5-tetrahydro-1H-pyrido[4,3-b]indole] was tested. Which inhibition at 0.1 µM [1, 3] did it give?
**A.** 31%

**Q.** For `Cc1ccc2c(c1)c1c(n2C2=C(c3ccc4c(ccn4C)c3)CCC2)CCN(C)C1` [compound 191, 2,8-dimethyl-5-(2-(1-methyl-1H-indol-5-yl)cyclopent-1-enyl)-2,3,4,5-tetrahydro-1H-pyrido[4,3-b]indole], which inhibition at 0.1 µM [1, 3] is on record?
**A.** 43%

**Q.** With `CCN1CCc2c(c3cc(C)ccc3n2CCc2ccccc2)C1` [compound 201] as the compound, how does the inhibition at 0.1 µM [1, 3] read?
**A.** 18%

**Q.** `CCN1CCc2c(c3cc(C)ccc3n2CCc2ccc(C)cc2)C1` [compound 202] was tested. Which inhibition at 0.1 µM [1, 3] did it give?
**A.** 52%

**Q.** Which inhibition at 0.1 µM [1, 3] does the source give for `CCN1CCc2c(c3cc(C)ccc3n2CC(O)c2ccc(C)cc2)C1` (stereo not shown) [compound 203] here?
**A.** 47%

**Q.** With `CN1CCc2c(c3cccc(Cl)c3n2CCc2ccccc2)C1` [compound 216] as the compound, how does the inhibition at 0.03 µM [1, 7] read?
**A.** 38%

**Q.** Which results are given for `COc1ccc(/C(C)=C/n2c3c(c4cc(Cl)ccc42)CCN(C)CC3)cc1F` [compound 240]?
**A.** Percentage inhibition of ligand binding, Adrenergic α1D (0.1 μM) [1, 8]: 47%; inhibition at 0.1 µM [1, 3]: 44%

**Q.** With `COc1ccc(/C(C)=C/n2c3c(c4cc(C)ccc42)CCN(C)CC3)cc1F` [compound 241] as the compound, how does the “Percentage inhibition … (0.1 μM)” value [1, 8] read?
**A.** 49%

**Q.** What about the inhibition at 0.1 µM [1, 3] of the same compound?
**A.** 47%
